# According to patent publication US10363299B2, “Compositions and methods for preventing and treating rhinovirus infections” (priority 2015, dated 2019):
# “And” between values parts separate entries of the source, which are not always exact repeats. Equal entries are not always repeated.
# Key:
# [1] = test system: CD4+ T cells; assay: Tetramer-guided epitope mapping (TGEM): pMHCII tetramer staining of PBMC cultures stimulated with RV peptides; format: cell-based, human; conditions: one value per subject
# Excerpt: (§1) Peptide libraries consisting of 20mers with a 12 amino acid overlap were generated to span the VP1, VP2 and VP4 protein sequences of RV-A16, and VP1 and VP2 protein sequences of RV-A39 (UniprotKB accession # Q82122, Q5XLP5). […] Biologically relevant pMHCII complexes were identified by tetramer-guided epitope mapping (TGEM). This involved 2 steps: First, PBMC cultures established from subjects with known HLA-DR types were stimulated with RV peptide pools derived from VP1, VP2, or VP4, and then stained with pMHCII tetramer pools composed of HLA-DR molecules corresponding to those expressed in the test subject; Second, positive signals were de-convoluted by repeating and staining with single-peptide tetramers. Tetramers that gave strong positive signals (˜1% of total CD4+ T cells) in the single peptide-tetramer screen in more than one subject, were then re-tested for their ability to detect RV-specific CD4+ T cells in non-stimulated PBMCs (denoted as ex vivo analysis) in multiple subjects.
# (§2) All experiments were performed in subjects expressing HLA-DR molecules corresponding to the selected tetramer. Precursor frequencies of circulating tetramer+ cells were then calculated by established methods. Tetramer+ cells were phenotyped for surface markers by staining PBMCs with PE-conjugated tetramers, labeling with anti-PE magnetic beads, enriching with an AutoMACS separator (Miltenyi Biotec, Auburn, Calif., USA), and then counterstaining for surface markers. A tetramer displaying an irrelevant peptide, GAD555-567, was used as a staining control. For simplicity, identified RV-A16 peptide epitopes were given a numerical designation.
# [2] = test system: RV-specific CD4+ T cells; assay: Direct ex vivo pMHCII tetramer staining of non-stimulated PBMCs; format: cell-based, human; parameters: key to Validated: Y means validated; conditions: for Ex Vivo Frequency (# per 10^6 CD4): directly ex vivo, without culture, one value per subject; for Validated: reliable ex vivo signal
# Excerpt: as §1, §2
# [3] = HLA allele 1*0404 tetramer, peptide-stimulated PBMC cultures
# [4] = HLA allele 1*1501 tetramer, peptide-stimulated PBMC cultures
# [5] = HLA allele 1*0701 tetramer, peptide-stimulated PBMC cultures
# [6] = HLA allele 1*1101 tetramer, peptide-stimulated PBMC cultures
# [7] = HLA allele 1*0101 tetramer, tetramer-positive CD4+ T cells in peptide-stimulated PBMC cultures
# [8] = HLA allele 1*0401 tetramer, peptide-stimulated PBMC cultures
# [9] = HLA allele 1*0301 tetramer, peptide-stimulated PBMC cultures
sequence,measurement,setting,value
AAKDGHIGHIVMQYMYVPPG [VP1P17],In Vitro Frequency (% CD4),[1]; [3],2.00 % CD4 and 2.99 % CD4 and 2.60 % CD4
same,Ex Vivo Frequency (# per 10^6 CD4),[2]; HLA allele 1*0404 tetramer,112 # per 10^6 CD4
ASKFHQGTLLVVMIPEHQLA [VP2P15],In Vitro Frequency (% CD4),[1]; [3],0.98 % CD4 and 0.81 % CD4
same,In Vitro Frequency (% CD4),[1]; [4],0.55 % CD4 and 0.53 % CD4
EITMVPSVAAKDGHIGHIVM [VP1P16],In Vitro Frequency (% CD4),[1]; [5],0.60 % CD4 and 0 % CD4
EQLHKVKVVTRIYHKAKHTK [VP1P29],In Vitro Frequency (% CD4),[1]; [6],3.35 % CD4 and 2.79 % CD4
same,Ex Vivo Frequency (# per 10^6 CD4),[2]; HLA allele 1*1101 tetramer,0 # per 10^6 CD4 (2×) and 3 # per 10^6 CD4
FTYARFDSEITMVPSVAAKD [VP1P15],In Vitro Frequency (% CD4),[1]; [5],0.26 % CD4 and 0 % CD4
FWQHGQPFPRFSLPFLSIAS [VP1P22],In Vitro Frequency (% CD4),"[1]; HLA allele DRB5 tetramer, peptide-stimulated PBMC cultures",3.52 % CD4 and 0.74 % CD4
same,Ex Vivo Frequency (# per 10^6 CD4),[2]; HLA allele DRB5 tetramer,10 # per 10^6 CD4 and 4 # per 10^6 CD4
GIFGENMFYHFLGRSGYTVH [VP2P12],In Vitro Frequency (% CD4),[1]; [7],0.63 % CD4 and 0 % CD4 and 1.23 % CD4
same,In Vitro Frequency (% CD4),[1]; [6],1.55 % CD4 and 0 % CD4 and 0.38 % CD4
HIVMQYMYVPPGAPIPTTRN [VP1P18],In Vitro Frequency (% CD4),[1]; [7],3.51 % CD4 and 0 % CD4 (2×)
same,In Vitro Frequency (% CD4),[1]; [8],0 % CD4 and 0.65 % CD4
same,In Vitro Frequency (% CD4),[1]; [3],1.84 % CD4 and 4.22 % CD4 and 2.76 % CD4
same,Ex Vivo Frequency (# per 10^6 CD4),[2]; HLA allele 1*0401 tetramer,2 # per 10^6 CD4
same,Ex Vivo Frequency (# per 10^6 CD4),[2]; HLA allele 1*0404 tetramer,247 # per 10^6 CD4 and 10 # per 10^6 CD4 and 52 # per 10^6 CD4 and 5 # per 10^6 CD4
same,Validated,[2]; HLA allele 1*0404 tetramer,Y
ISNIVPITVSISPMCAEFSG [VP2P30],In Vitro Frequency (% CD4),[1]; [4],0.46 % CD4 and 0 % CD4
ITVSISPMCAEFSGARAKTV [VP2P31],In Vitro Frequency (% CD4),[1]; [4],0.37 % CD4 and 0 % CD4
LDSKMWNSTSKGWWWKLPDA [VP2P9],In Vitro Frequency (% CD4),[1]; [6],0.22 % CD4 and 0 % CD4 (2×)
LLGNLLIFPHQFINLRSNNS [VP2P23],In Vitro Frequency (% CD4),[1]; [7],1.6 % CD4 and 3.19 % CD4 and 1.58 % CD4
LLVVMIPEHQLATVNKGNVN [VP2P16],In Vitro Frequency (% CD4),[1]; [4],0 % CD4 and 3 % CD4
NEKQPSDDNWLNFDGTLLGN [VP2P21],In Vitro Frequency (% CD4),[1]; [9],1.57 % CD4 and 0.87 % CD4
same,In Vitro Frequency (% CD4),[1]; [8],5.13 % CD4 and 0.89 % CD4
same,In Vitro Frequency (% CD4),[1]; [3],0 % CD4 and 0.65 % CD4
same,Ex Vivo Frequency (# per 10^6 CD4),[2]; HLA allele 1*0301 tetramer,29 # per 10^6 CD4 and 4 # per 10^6 CD4 and 6 # per 10^6 CD4
same,Validated,[2]; HLA allele 1*0301 tetramer,Y
same,Ex Vivo Frequency (# per 10^6 CD4),[2]; HLA allele 1*0401 tetramer,9 # per 10^6 CD4 and 63 # per 10^6 CD4 and 3 # per 10^6 CD4
same,Validated,[2]; HLA allele 1*0401 tetramer,Y
NWLNFDGTLLGNLLIFPHQF [VP2P22],In Vitro Frequency (% CD4),[1]; [7],0.35 % CD4 and 0 % CD4 (2×)
same,In Vitro Frequency (% CD4),[1]; [9],2.61 % CD4 and 0.75 % CD4
same,In Vitro Frequency (% CD4),[1]; [8],3.38 % CD4 and 0.89 % CD4
same,In Vitro Frequency (% CD4),[1]; [6],0 % CD4 (2×) and 1.31 % CD4
same,Ex Vivo Frequency (# per 10^6 CD4),[2]; HLA allele 1*0401 tetramer,1 # per 10^6 CD4
